# Where two headings read alike, the source gives them in different places.
# Tests used:
# [1] = biological target: pCDRI (ABC) efflux pump in S. cerevisiae YEM-1 (Candida albicans, UniProt P43071); assay: cell-based; assay type: cell-based, C. albicans
# YEM 51 C. glabrata wt = assay: FEPI MIC with/without 1/8 fluconazole MIC at 24 hrs (Table 11); assay type: cell-based; details: for MIC of compound in the absence of fluconazole (−): YEM 51, 24 hrs, 80% inhibition
# [2] = tested on: S. cerevisiae YEM-3 (no efflux pump introduced); assay: microbe, parasite or virus in culture; assay type: cell-based; details: Saccharomyces cerevisiae, read-out: MIC Mb alone
# YEM 30 C. albicans wt = assay: FEPI MIC with/without 1/8 fluconazole MIC at 24 hrs (Table 11); assay type: cell-based; details: for MIC of compound in the absence of fluconazole (−): YEM 30, 24 hrs, 80% inhibition
# [3] = tested on: S. cerevisiae YEM-1 (CDR1 introduced); assay: microbe, parasite or virus in culture; assay type: cell-based; details: Saccharomyces cerevisiae, read-out: MIC Mb alone
# [4] = tested on: pCgBEN (MF) efflux pump in S. cerevisiae YEM-40; assay type: cell-based, C. glabrata; details: YEM-40 pCgBEN; fluconazole fixed at FLUhalf 2.8
# [5] = tested on: S. cerevisiae YEM-39 (CgCDR introduced); assay: microbe, parasite or virus in culture; assay type: cell-based; details: Saccharomyces cerevisiae, read-out: MIC Mb alone
# [6] = tested on: YEM 15 C. albicans, CDR1CDR2 up; assay: microbe, parasite or virus in culture; assay type: cell-based; details: YEM 15, 24 hrs, 80% inhibition; for MIC of compound in the presence of fluconazole (+): 1/8 × MIC of fluconazole
# [7] = biological target: pCDR2 (ABC) efflux pump in S. cerevisiae YEM-37 (Candida albicans, UniProt P78595); assay: cell-based; assay type: cell-based, C. albicans
# pCDR2 (ABC) efflux pump in S. cerevisiae YEM-37, sequence (P78595 whole entry): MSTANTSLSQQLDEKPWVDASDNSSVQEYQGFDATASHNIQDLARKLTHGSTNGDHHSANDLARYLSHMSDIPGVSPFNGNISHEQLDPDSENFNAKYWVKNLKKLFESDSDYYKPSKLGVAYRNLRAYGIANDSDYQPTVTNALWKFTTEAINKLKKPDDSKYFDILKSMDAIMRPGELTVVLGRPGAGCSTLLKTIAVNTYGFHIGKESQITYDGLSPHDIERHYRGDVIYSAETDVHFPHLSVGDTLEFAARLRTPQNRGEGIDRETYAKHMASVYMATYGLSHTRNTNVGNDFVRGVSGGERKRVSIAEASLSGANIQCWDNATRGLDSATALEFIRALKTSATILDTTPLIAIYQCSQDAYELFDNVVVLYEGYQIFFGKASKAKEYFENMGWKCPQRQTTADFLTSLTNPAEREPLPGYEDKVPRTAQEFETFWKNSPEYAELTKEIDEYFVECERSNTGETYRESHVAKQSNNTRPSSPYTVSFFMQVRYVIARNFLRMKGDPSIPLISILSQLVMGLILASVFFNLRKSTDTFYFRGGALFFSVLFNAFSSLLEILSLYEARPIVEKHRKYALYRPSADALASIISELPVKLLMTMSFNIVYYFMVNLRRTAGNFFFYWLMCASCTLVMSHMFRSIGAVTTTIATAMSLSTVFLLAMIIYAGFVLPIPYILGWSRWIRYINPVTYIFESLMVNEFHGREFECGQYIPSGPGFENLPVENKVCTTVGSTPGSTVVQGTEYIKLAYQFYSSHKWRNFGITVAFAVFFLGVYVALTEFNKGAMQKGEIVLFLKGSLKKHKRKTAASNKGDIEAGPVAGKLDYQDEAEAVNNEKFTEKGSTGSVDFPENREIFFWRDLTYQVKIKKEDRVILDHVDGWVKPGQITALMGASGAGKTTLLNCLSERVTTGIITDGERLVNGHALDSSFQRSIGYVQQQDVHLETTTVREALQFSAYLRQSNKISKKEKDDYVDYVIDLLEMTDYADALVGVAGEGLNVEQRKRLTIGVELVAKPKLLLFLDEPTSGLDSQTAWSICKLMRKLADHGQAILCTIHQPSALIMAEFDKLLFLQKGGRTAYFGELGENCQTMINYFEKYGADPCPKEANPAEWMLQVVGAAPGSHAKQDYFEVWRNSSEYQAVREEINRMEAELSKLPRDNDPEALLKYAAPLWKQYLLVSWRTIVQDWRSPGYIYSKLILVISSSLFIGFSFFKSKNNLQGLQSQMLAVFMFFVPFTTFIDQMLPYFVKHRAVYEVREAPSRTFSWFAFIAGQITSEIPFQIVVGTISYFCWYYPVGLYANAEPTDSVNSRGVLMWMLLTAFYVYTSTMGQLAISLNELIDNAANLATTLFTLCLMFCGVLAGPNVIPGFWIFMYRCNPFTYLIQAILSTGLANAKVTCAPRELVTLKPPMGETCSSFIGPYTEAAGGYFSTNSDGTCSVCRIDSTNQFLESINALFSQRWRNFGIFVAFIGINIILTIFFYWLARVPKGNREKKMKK
# [8] = tested on: C. albicans YEM-13 (BEN overexpressor); assay: microbe, parasite or virus in culture; assay type: cell-based; details: Candida albicans, read-out: MIC Mb alone
# [9] = tested on: YEM 13 C. albicans BEN up; assay: microbe, parasite or virus in culture; assay type: cell-based; details: YEM 13, 24 hrs, 80% inhibition; for MIC of compound in the presence of fluconazole (+): 1/8 × MIC of fluconazole
# [10] = biological target: pCgCDR (ABC) efflux pump in S. cerevisiae YEM-39 (Candida glabrata, UniProt Q6FK23); assay: cell-based; assay type: cell-based, C. glabrata
# pCgCDR (ABC) efflux pump in S. cerevisiae YEM-39, sequence (Q6FK23 whole entry): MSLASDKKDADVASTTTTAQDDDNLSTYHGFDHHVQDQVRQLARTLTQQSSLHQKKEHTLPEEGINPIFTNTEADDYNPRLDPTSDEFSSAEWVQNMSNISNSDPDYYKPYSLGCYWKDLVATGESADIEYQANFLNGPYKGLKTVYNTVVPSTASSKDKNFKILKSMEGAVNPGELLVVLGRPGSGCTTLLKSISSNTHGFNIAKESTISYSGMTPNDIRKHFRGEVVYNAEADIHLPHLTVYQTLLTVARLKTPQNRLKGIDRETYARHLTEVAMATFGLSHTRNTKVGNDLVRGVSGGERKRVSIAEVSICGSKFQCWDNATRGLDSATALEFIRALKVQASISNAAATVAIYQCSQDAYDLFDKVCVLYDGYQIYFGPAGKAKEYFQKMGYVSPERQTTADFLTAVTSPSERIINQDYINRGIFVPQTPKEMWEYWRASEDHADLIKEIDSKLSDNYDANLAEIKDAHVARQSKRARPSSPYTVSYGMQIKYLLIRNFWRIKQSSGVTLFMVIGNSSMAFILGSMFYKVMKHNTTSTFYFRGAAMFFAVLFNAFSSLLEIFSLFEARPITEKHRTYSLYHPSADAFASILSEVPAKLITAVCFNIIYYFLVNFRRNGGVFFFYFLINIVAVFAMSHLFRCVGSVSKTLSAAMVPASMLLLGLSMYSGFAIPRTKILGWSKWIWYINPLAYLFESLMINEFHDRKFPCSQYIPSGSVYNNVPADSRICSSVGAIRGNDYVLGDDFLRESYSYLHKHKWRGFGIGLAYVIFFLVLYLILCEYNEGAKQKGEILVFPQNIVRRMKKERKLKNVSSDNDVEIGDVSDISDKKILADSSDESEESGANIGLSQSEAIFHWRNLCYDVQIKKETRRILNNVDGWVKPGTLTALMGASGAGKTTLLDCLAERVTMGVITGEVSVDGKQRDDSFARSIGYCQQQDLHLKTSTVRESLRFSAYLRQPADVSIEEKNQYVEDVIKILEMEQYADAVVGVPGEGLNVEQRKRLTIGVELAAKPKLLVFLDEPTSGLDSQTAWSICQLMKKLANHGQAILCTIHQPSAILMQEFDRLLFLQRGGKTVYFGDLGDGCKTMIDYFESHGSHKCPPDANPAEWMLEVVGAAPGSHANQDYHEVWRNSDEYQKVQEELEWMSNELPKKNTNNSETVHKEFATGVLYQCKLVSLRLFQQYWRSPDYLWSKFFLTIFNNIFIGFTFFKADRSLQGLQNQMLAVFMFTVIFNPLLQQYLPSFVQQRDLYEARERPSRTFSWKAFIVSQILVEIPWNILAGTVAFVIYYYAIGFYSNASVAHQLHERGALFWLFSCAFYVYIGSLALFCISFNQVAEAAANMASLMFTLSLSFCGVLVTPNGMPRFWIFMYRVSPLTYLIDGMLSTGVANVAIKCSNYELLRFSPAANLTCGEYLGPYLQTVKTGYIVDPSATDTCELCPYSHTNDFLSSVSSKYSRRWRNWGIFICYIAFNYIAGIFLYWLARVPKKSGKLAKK
# [11] = tested on: YEM 17 C. glabrata, CgCDR up; assay type: cell-based; details: 24 hrs, 80% inhibition; for MIC of compound in the presence of fluconazole (+): 1/8 × MIC of fluconazole
# YEM 53 C. krusei = assay: FEPI MIC with/without 1/8 fluconazole MIC at 24 hrs (Table 11); assay type: cell-based; details: for MIC of compound in the absence of fluconazole (−): YEM 53, 24 hrs, 80% inhibition
# CDR1 efflux pump = CDR1 efflux pump (Candida albicans, UniProt P43071); assay: Follow-up evaluation of screening hit, efflux pump inhibition; details: follow-up evaluation of screen hit
# Protocol: An exemplary screen uses C. albicans (e.g., ATCC10231) grown in YPD medium (medium described in “Guide to Yeast Genetics and Molecular Biology”, in Methods in Enzymolopy, vol. 194, pp.13, 1991,; Academic Press; Ed. C. Guthrie and G. Fink) at 30° C. […] Test and control cultures are inoculated with log-phase cells to provide approximately 10^3 CFU/ml. Cultures are incubated at 30° C. for 20-22 hrs. Cell concentration is determined by taking the OD600.
# [12] = tested on: YEM 27 C. albicans ΔCDR1ΔCDR2 ΔBENΔFLU1; assay: microbe, parasite or virus in culture; assay type: cell-based; details: YEM 27, 24 hrs, 80% inhibition; for MIC of compound in the presence of fluconazole (+): 1/8 × MIC of fluconazole
# [13] = biological target: pBEN (MF) efflux pump in S. cerevisiae YEM-2 (Candida albicans, UniProt P28873); assay: cell-based; assay type: cell-based, C. albicans
# pBEN (MF) efflux pump in S. cerevisiae YEM-2, sequence (P28873 whole entry): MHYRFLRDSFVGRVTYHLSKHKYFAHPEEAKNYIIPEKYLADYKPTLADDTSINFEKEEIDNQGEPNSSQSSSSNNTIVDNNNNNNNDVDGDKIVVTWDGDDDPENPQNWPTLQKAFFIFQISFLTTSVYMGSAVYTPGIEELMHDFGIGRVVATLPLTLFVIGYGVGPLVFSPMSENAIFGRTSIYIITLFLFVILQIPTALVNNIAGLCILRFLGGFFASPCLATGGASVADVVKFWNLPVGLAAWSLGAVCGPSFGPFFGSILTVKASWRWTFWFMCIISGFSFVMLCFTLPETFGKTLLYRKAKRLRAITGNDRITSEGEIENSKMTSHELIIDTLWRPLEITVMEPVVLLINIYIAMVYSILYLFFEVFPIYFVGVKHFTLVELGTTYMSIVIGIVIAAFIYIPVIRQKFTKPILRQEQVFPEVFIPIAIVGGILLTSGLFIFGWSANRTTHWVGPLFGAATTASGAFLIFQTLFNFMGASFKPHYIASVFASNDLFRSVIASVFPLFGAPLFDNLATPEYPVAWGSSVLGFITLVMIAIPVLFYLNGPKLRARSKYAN
# [14] = tested on: C. albicans YEM-21 (BEN deleted); assay: microbe, parasite or virus in culture; assay type: cell-based
# [15] = tested on: C. albicans YEM-14 (low level CDR1 expressor); assay: microbe, parasite or virus in culture; assay type: cell-based
# Aspergillus fumigatus = assay: FEPI MICs in combination with 1/4 the azole's MIC (Table 12); assay type: cell-based; details: for FEPI MIC with itraconazole, 60% Inh / FEPI MIC with itraconazole, 80% Inh: itraconazole 0.063 μg/ml (1/4 MIC); for FEPI MIC with itraconazole, 60% Inh / FEPI MIC with ketoconazole, 60% Inh: 60% inhibition; for FEPI MIC with itraconazole, 80% Inh / FEPI MIC with ketoconazole, 80% Inh / FEPI MIC (alone): 80% inhibition; for FEPI MIC with ketoconazole, 60% Inh / FEPI MIC with ketoconazole, 80% Inh: ketoconazole 4 μg/ml (1/4 MIC); for FEPI MIC (alone): no azole, 35° C., CM Broth
# Protocol: The combinations were tested against a series of Candida strain with known expression of efflux pumps or with complete deletion of all known pumps and Aspergillus fumigatus. Results are reported as minimum inhibitory concentration (MIC) of […] in the presence or absence of […]. A total of 27 distinct milbemycins were studied.
# [16] = tested on: YEM 24 C. albicans ΔCDR1, ΔCDR2; assay: microbe, parasite or virus in culture; assay type: cell-based; details: YEM 24, 24 hrs, 80% inhibition; for MIC of compound in the presence of fluconazole (+): 1/8 × MIC of fluconazole
# C. krusei YEM-71 = assay: Broth dilution checkerboard, azoles and terbinafine with milbemycin α9 (Table 8); assay type: cell-based; parameters: MIC Reduction Factor, fluconazole / MIC Reduction Factor, itraconazole / MIC Reduction Factor, ketoconazole / MIC Reduction Factor, terbinafine: unit not given beside the values; details: for MIC: Pichia kudriavzevii
# [17] = tested on: S. cerevisiae YEM-39 overexpressing CgCDR (C. glabrata); assay: microbe, parasite or virus in culture; assay type: cell-based; parameters: MIC Reduction Factor, fluconazole: unit not given beside the values; details: for MIC: Saccharomyces cerevisiae
# C. lipolytica = assay: microbe, parasite or virus in culture; assay type: cell-based; details: strain 828B; MIC (80%) in YPD
# [18] = Candida albicans, read-out: MIC Mb alone
# [19] = YEM-71, milbemycin α9 at FEPImax
# [20] = YEM-39 (CgCDR), milbemycin α9 at FEPImax
# [21] = YEM-39, milbemycin α9 at FEPImax
# pCDRI (ABC) efflux pump in S. cerevisiae YEM-1, sequence (P43071 whole entry): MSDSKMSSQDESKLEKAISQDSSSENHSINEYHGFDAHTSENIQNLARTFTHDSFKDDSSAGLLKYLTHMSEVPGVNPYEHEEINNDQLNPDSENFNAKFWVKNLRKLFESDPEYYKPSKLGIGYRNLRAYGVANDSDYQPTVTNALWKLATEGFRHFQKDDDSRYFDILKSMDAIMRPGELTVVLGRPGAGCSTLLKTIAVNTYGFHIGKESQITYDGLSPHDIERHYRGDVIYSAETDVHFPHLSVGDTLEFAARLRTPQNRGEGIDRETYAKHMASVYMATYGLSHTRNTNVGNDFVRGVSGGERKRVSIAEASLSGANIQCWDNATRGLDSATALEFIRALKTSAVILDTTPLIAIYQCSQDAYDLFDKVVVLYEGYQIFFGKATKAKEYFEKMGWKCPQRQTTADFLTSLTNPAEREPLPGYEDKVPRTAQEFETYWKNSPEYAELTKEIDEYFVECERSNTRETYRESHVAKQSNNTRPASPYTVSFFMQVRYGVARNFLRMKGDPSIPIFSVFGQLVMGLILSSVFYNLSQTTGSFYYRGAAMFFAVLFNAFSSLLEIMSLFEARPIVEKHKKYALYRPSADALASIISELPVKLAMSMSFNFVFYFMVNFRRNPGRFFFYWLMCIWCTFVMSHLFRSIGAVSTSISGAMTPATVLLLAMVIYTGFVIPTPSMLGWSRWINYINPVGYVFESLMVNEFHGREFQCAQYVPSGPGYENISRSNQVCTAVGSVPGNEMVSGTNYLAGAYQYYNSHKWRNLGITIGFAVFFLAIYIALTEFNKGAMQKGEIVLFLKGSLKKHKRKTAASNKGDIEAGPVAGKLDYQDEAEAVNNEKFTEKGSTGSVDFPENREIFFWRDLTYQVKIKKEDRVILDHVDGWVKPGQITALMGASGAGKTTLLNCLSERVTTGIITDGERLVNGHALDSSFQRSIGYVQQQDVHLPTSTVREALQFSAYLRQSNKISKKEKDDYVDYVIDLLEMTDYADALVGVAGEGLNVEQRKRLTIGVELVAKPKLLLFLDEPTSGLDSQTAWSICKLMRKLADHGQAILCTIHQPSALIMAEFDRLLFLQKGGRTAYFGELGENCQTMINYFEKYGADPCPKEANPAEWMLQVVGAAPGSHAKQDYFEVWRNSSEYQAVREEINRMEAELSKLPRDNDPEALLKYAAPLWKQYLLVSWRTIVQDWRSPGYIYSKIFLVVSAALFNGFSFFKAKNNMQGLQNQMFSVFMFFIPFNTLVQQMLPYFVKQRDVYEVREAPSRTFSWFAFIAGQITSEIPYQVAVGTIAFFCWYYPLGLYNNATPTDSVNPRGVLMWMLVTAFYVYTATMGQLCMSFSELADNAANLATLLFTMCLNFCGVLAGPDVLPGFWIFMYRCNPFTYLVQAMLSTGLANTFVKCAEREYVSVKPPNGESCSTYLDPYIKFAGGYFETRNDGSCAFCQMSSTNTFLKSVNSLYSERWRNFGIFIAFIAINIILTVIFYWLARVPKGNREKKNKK
smiles,measurement,setting,value
"CO[C@H]1C[C@@]2(O)/C(CO)=C/C=C/[C@H](C)C/C(C)=C/C[C@@H]3C[C@@H](C[C@]4(CC[C@H](C)[C@@H](C)O4)O3)OC(=O)[C@@H]2C=C1C [Compound 6, Milbemycin β1]",IC50,"[1]; read-out: FEPIhalf (concentration needed to reduce activity of efflux pump by 50%), YEM-1 pCDRI, fluconazole fixed at FLUhalf 5.6",0.918 µM
same,MIC of compound in the presence of fluconazole (+),YEM 51 C. glabrata wt,8 µg/mL
same,MIC of compound in the absence of fluconazole (−),YEM 51 C. glabrata wt,> 64 µg/mL
same,MIC,[2],8 µg/mL
same,MIC of compound in the presence of fluconazole (+),YEM 30 C. albicans wt,≦0.03
same,MIC of compound in the absence of fluconazole (−),YEM 30 C. albicans wt,> 64 µg/mL
same,MIC,[3],8 µg/mL
same,FEPIhalf (concentration needed to reduce activity of efflux pump by 50%),[4],16
same,MIC,[5],8 µg/mL
same,MIC of compound in the presence of fluconazole (+),[6],≦0.03
same,MIC of compound in the absence of fluconazole (−),[6],> 64 µg/mL
same,IC50,"[7]; read-out: FEPIhalf (concentration needed to reduce activity of efflux pump by 50%), YEM-37 pCDR2, fluconazole fixed at FLUhalf 1",3.67 µM
same,MIC,[8],32 µg/mL
same,MIC of compound in the presence of fluconazole (+),[9],> 64 µg/mL
same,MIC of compound in the absence of fluconazole (−),[9],> 64 µg/mL
same,IC50,"[10]; read-out: FEPIhalf (concentration needed to reduce activity of efflux pump by 50%), YEM-39 pCgCDR, fluconazole fixed at FLUhalf 4",3.67 µM
same,MIC of compound in the presence of fluconazole (+),[11],1 µg/mL
same,MIC of compound in the absence of fluconazole (−),[11],> 64 µg/mL
same,MIC of compound in the presence of fluconazole (+),YEM 53 C. krusei,8 µg/mL
same,MIC of compound in the absence of fluconazole (−),YEM 53 C. krusei,> 64 µg/mL
same,Inhibition of the CDR1 efflux pump,CDR1 efflux pump,inhibited the CDR1 efflux pump
same,MIC of compound in the presence of fluconazole (+),[12],64 µg/mL
same,MIC of compound in the absence of fluconazole (−),[12],> 64 µg/mL
same,IC50,"[13]; read-out: FEPIhalf (concentration needed to reduce activity of efflux pump by 50%), YEM-2 pBEN, fluconazole fixed at FLUhalf 5.6",29.4 µM
same,MIC,[14]; [18],16 µg/mL
same,"MIC of fluconazole, Flu + Mb (2.5 μg/ml)","[14]; YEM-21, BEN deleted, milbemycin β1 2.5 μg/ml",0.03 µg/mL
same,MIC,[15]; [18],16 µg/mL
same,"MIC of fluconazole, Flu + Mb (2.5 μg/ml)","[15]; YEM-14, milbemycin β1 2.5 μg/ml",0.125 µg/mL
same,"FEPI MIC with fluconazole, 60% Inh",Aspergillus fumigatus,2
same,"FEPI MIC with fluconazole, 80% Inh",Aspergillus fumigatus,>64
same,"FEPI MIC with itraconazole, 60% Inh",Aspergillus fumigatus,>64
same,"FEPI MIC with itraconazole, 80% Inh",Aspergillus fumigatus,>64
same,"FEPI MIC with ketoconazole, 60% Inh",Aspergillus fumigatus,≦0.063
same,"FEPI MIC with ketoconazole, 80% Inh",Aspergillus fumigatus,4
same,FEPI MIC (alone),Aspergillus fumigatus,>64
same,MIC of compound in the presence of fluconazole (+),[16],> 64 µg/mL
same,MIC of compound in the absence of fluconazole (−),[16],> 64 µg/mL
"C/C1=C\C[C@@H]2C[C@@H](C[C@]3(CC[C@H](C)[C@@H](C)O3)O2)OC(=O)[C@@H]2C=C(COC(=O)c3ccc[nH]3)[C@@H](O)[C@H]3OC/C(=C\C=C\[C@H](C)C1)[C@]32O [Compound 11, Milbemycin α9]",MIC,"C. krusei YEM-71; YEM71, read-out: Milbemycin α9 MIC",> 64 µg/mL
same,MIC,"C. krusei YEM-71; YEM71, read-out: Terbinafine MIC in the presence of FEPImax",2 µg/mL
same,"FEPImax (minimal milbemycin α9 conc. for maximum MIC reduction), fluconazole",C. krusei YEM-71; YEM-71,1 µg/mL
same,"FEPImax (minimal milbemycin α9 conc. for maximum MIC reduction), itraconazole",C. krusei YEM-71; YEM-71,0.25 µg/mL
same,"FEPImax (minimal milbemycin α9 conc. for maximum MIC reduction), ketoconazole",C. krusei YEM-71; YEM-71,2 µg/mL
same,"FEPImax (minimal milbemycin α9 conc. for maximum MIC reduction), terbinafine",C. krusei YEM-71; YEM-71,0.008 µg/mL
same,Fluconazole MIC in the presence of FEPImax,C. krusei YEM-71; [19],8 µg/mL
same,Itraconazole MIC in the presence of FEPImax,C. krusei YEM-71; [19],0.008 µg/mL
same,Ketoconazole MIC in the presence of FEPImax,C. krusei YEM-71; [19],0.015 µg/mL
same,"MIC Reduction Factor, fluconazole",C. krusei YEM-71; [19],16
same,"MIC Reduction Factor, itraconazole",C. krusei YEM-71; [19],64
same,"MIC Reduction Factor, ketoconazole",C. krusei YEM-71; [19],128
same,"MIC Reduction Factor, terbinafine",C. krusei YEM-71; [19],64
same,IC50,[1],< 0.0941 µM
same,MIC,[17]; read-out: Milbemycin α9 MIC,> 64 µg/mL
same,MIC,[17]; read-out: Terbinafine MIC in the presence of FEPImax,1 µg/mL
same,"FEPImax (minimal milbemycin α9 conc. for maximum MIC reduction), fluconazole",[17]; YEM-39 (CgCDR),2 µg/mL
same,"FEPImax (minimal milbemycin α9 conc. for maximum MIC reduction), terbinafine",[17]; YEM-39 (CgCDR),2 µg/mL
same,"Pump inhibition (%), fluconazole",[17]; [20],60%
same,"Pump inhibition (%), terbinafine",[17]; [20],66%
same,Fluconazole MIC in the presence of FEPImax,[17]; [21],4 µg/mL
same,"MIC Reduction Factor, fluconazole",[17]; [21],16
same,Inhibition of CgCDR efflux pump from C. glabrata,"[17]; summary of Table 9, fluconazole and terbinafine",60-65%
same,MIC of compound in the presence of fluconazole (+),YEM 51 C. glabrata wt,1 µg/mL
same,MIC of compound in the absence of fluconazole (−),YEM 51 C. glabrata wt,> 64 µg/mL
same,MIC of compound in the presence of fluconazole (+),YEM 30 C. albicans wt,≦0.03
same,MIC of compound in the absence of fluconazole (−),YEM 30 C. albicans wt,> 64 µg/mL
same,FEPIhalf (concentration needed to reduce activity of efflux pump by 50%),[4],>64
same,MIC of compound in the presence of fluconazole (+),[6],≦0.03
same,MIC of compound in the absence of fluconazole (−),[6],> 64 µg/mL
same,IC50,[7],3.14 µM
same,MIC of compound in the presence of fluconazole (+),[9],> 64 µg/mL
same,MIC of compound in the absence of fluconazole (−),[9],> 64 µg/mL
same,IC50,[10],6.27 µM
same,MIC of compound in the presence of fluconazole (+),[11],0.5 µg/mL
same,MIC of compound in the absence of fluconazole (−),[11],> 64 µg/mL
same,MIC of compound in the presence of fluconazole (+),YEM 53 C. krusei,≦0.03
same,MIC of compound in the absence of fluconazole (−),YEM 53 C. krusei,> 64 µg/mL
same,"Fluconazole MIC, + milbemycin α9",C. lipolytica,8 µg/mL
same,MIC of compound in the presence of fluconazole (+),[12],> 64 µg/mL
same,MIC of compound in the absence of fluconazole (−),[12],> 64 µg/mL
same,IC50,[13],> 100 µM
same,"FEPI MIC with fluconazole, 60% Inh",Aspergillus fumigatus,≦0.063
same,"FEPI MIC with fluconazole, 80% Inh",Aspergillus fumigatus,0.5
same,"FEPI MIC with itraconazole, 60% Inh",Aspergillus fumigatus,1
same,"FEPI MIC with itraconazole, 80% Inh",Aspergillus fumigatus,4
same,"FEPI MIC with ketoconazole, 60% Inh",Aspergillus fumigatus,0.125
same,"FEPI MIC with ketoconazole, 80% Inh",Aspergillus fumigatus,0.125
same,FEPI MIC (alone),Aspergillus fumigatus,>64
same,MIC of compound in the presence of fluconazole (+),[16],> 64 µg/mL
same,MIC of compound in the absence of fluconazole (−),[16],> 64 µg/mL
